From ChEMBL document CHEMBL1201862, “PubChem BioAssay data set” (2004)
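Where inhibition never reached the appropriate level, the endpoint shown equals the highest concentration tested. Otherwise, values were interpolated linearly from a five-concentration, 48-hour dose response in 96-well plates. Here, GI50 denotes the concentration required for 50% inhibition of growth.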 Active and inactive are the calls of the source. No stated cut-off is given here; in the data, active = GI50 up to about 1.1 µM and inactive = higher.

Tests used:
Assay in all cases: NCI tumour cell line growth inhibition, 48 h
786-0 = tested on: 786-0
A498 = tested on: A498
A549 = tested on: A549
ACHN = tested on: ACHN
BT-549 = tested on: BT-549
CAKI-1 = tested on: CAKI-1
CCRF-CEM = tested on: CCRF-CEM
COLO 205 = tested on: COLO 205
EKVX = tested on: EKVX
HCC 2998 = tested on: HCC 2998
HCT-116 = tested on: HCT-116
HCT-15 = tested on: HCT-15
HL-60 = tested on: HL-60
HOP-62 = tested on: HOP-62
HOP-92 = tested on: HOP-92
HT-29 = tested on: HT-29
Hs-578T = tested on: Hs-578T
IGROV-1 = tested on: IGROV-1
K562 = tested on: K562
KM12 = tested on: KM12
LOX IMVI = tested on: LOX IMVI
M14 = tested on: M14
MCF7 = tested on: MCF7
MDA-MB-231 = tested on: MDA-MB-231
MDA-MB-435 = tested on: MDA-MB-435
MDA-N = tested on: MDA-N
MOLT-4 = tested on: MOLT-4
Malme-3M = tested on: Malme-3M
NCI-H226 = tested on: NCI-H226
NCI-H23 = tested on: NCI-H23
NCI-H460 = tested on: NCI-H460
NCI-H522 = tested on: NCI-H522
NCI/ADR-RES = tested on: NCI/ADR-RES
OVCAR-3 = tested on: OVCAR-3
OVCAR-4 = tested on: OVCAR-4
OVCAR-5 = tested on: OVCAR-5
OVCAR-8 = tested on: OVCAR-8
PC-3 = tested on: PC-3
RPMI-8226 = tested on: RPMI-8226
RXF 393 = tested on: RXF 393
SF-268 = tested on: SF-268
SF-295 = tested on: SF-295
SF-539 = tested on: SF-539
SK-MEL-28 = tested on: SK-MEL-28
SK-MEL-2 = tested on: SK-MEL-2
SK-MEL-5 = tested on: SK-MEL-5
SK-OV-3 = tested on: SK-OV-3
SNB-19 = tested on: SNB-19
SNB-75 = tested on: SNB-75
SR = tested on: SR
SW-620 = tested on: SW-620
T47D = tested on: T47D
U-251 = tested on: U-251
UACC-257 = tested on: UACC-257
UACC-62 = tested on: UACC-62
UO-31 = tested on: UO-31
DU-145 = tested on: DU-145
SN12C = tested on: SN12C
TK-10 = tested on: TK-10

Measured: GI50

CN(/N=C/c1ccccn1)C1=NCCN1
inactive: 786-0 > 100 µM | A498 > 100 µM | A549 > 100 µM | ACHN > 100 µM | BT-549 > 100 µM | CAKI-1 > 100 µM | CCRF-CEM > 100 µM | COLO 205 > 100 µM | EKVX > 100 µM | HCC 2998 > 100 µM | HCT-116 > 100 µM | HL-60 > 100 µM | HOP-62 > 100 µM | HOP-92 > 100 µM | HT-29 > 100 µM | Hs-578T > 100 µM | IGROV-1 > 100 µM | K562 > 100 µM | KM12 > 100 µM | LOX IMVI > 100 µM | M14 > 100 µM | MCF7 > 100 µM | MDA-MB-231 > 100 µM | MDA-MB-435 > 100 µM | MDA-N > 100 µM | MOLT-4 > 100 µM | Malme-3M > 100 µM | NCI-H226 > 100 µM | NCI-H23 > 100 µM | NCI-H460 > 100 µM | NCI-H522 > 100 µM | NCI/ADR-RES > 100 µM | OVCAR-3 > 100 µM | OVCAR-4 > 100 µM | OVCAR-5 > 100 µM | OVCAR-8 > 100 µM | PC-3 > 100 µM | RPMI-8226 > 100 µM | RXF 393 > 100 µM | SF-268 > 100 µM | SF-295 > 100 µM | SF-539 > 100 µM | SK-MEL-28 > 100 µM | SK-MEL-2 > 100 µM | SK-MEL-5 > 100 µM | SK-OV-3 > 100 µM | SNB-19 > 100 µM | SNB-75 > 100 µM | SR > 100 µM | SW-620 > 100 µM | T47D > 100 µM | U-251 > 100 µM | UACC-257 > 100 µM | UACC-62 > 100 µM | UO-31 > 100 µM
> 100 µM: HCT-15

O=C1Nc2ccccc2N/C1=C\C(=O)C(F)F
> 100 µM: HCT-15
inactive: 786-0 > 100 µM | A498 > 100 µM | A549 > 100 µM | ACHN > 100 µM | BT-549 > 100 µM | CAKI-1 > 100 µM | CCRF-CEM > 100 µM | COLO 205 > 100 µM | DU-145 > 100 µM | EKVX 14.9 µM | HCC 2998 > 100 µM | HCT-116 > 100 µM | HL-60 > 100 µM | HOP-62 > 100 µM | HT-29 > 100 µM | Hs-578T > 100 µM | IGROV-1 > 100 µM | K562 > 100 µM | KM12 > 100 µM | LOX IMVI > 100 µM | M14 > 100 µM | MCF7 > 100 µM | MDA-MB-231 > 100 µM | MDA-MB-435 > 100 µM | MDA-N > 100 µM | MOLT-4 > 100 µM | Malme-3M > 100 µM | NCI-H226 > 100 µM | NCI-H23 > 100 µM | NCI-H460 > 100 µM | NCI-H522 > 100 µM | NCI/ADR-RES > 100 µM | OVCAR-3 > 100 µM | OVCAR-4 > 100 µM | OVCAR-5 > 100 µM | OVCAR-8 > 100 µM | PC-3 > 100 µM | RPMI-8226 > 100 µM | RXF 393 > 100 µM | SF-268 > 100 µM | SF-295 > 100 µM | SF-539 > 100 µM | SK-MEL-28 > 100 µM | SK-MEL-2 > 100 µM | SK-MEL-5 > 100 µM | SK-OV-3 > 100 µM | SN12C > 100 µM | SNB-19 > 100 µM | SR > 100 µM | SW-620 > 100 µM | TK-10 > 100 µM | U-251 > 100 µM | UACC-257 > 100 µM | UACC-62 > 100 µM | UO-31 > 100 µM

Nc1ccc2cc3ccc(N)cc3nc2c1
inactive: BT-549 3.72 µM | CAKI-1 1.56 µM | DU-145 3.33 µM | EKVX 1.56 µM | HCC 2998 1.25 µM | HL-60 1.56 µM | HOP-62 1.62 µM | Hs-578T 2.43 µM | MDA-MB-231 1.94 µM | MDA-N 1.41 µM | OVCAR-3 2.09 µM | OVCAR-5 1.63 µM | SF-268 1.37 µM | SF-295 2.42 µM | SK-MEL-28 2 µM | SK-MEL-5 1.4 µM | SNB-75 1.34 µM | T47D 2.63 µM | TK-10 2.69 µM | UACC-257 2 µM | UACC-62 1.41 µM
active: ACHN 0.826 µM | CCRF-CEM 1 µM | COLO 205 0.771 µM | HCT-116 0.482 µM | HT-29 0.499 µM | MCF7 0.757 µM | MOLT-4 0.524 µM | NCI-H460 0.46 µM | NCI/ADR-RES 1.03 µM | OVCAR-8 0.678 µM | SF-539 1.02 µM | SN12C 0.979 µM | SR 0.667 µM | SW-620 0.395 µM | UO-31 0.993 µM
